biological target: Human FXIIa (Homo sapiens (Human), UniProt P00748); test: Factor XIIa (FXIIa) inhibitory activity, chromogenic substrate (Pefachrome XIIa) cleavage; type: biochemical; details: 10 min pre-incubation, Pefachrome XIIa 400 μM
Experimental: Factor XIIa (FXIIa) Inhibitory Activity:
In a 96-well clear bottom plate, 80 μl of assay buffer was added to each well. Assay buffer consists of 0.5× Hank's Balanced Salt Solution (Invitrogen), buffered with 25 mM HEPES pH 7.4 (Invitrogen) and 0.5× Tris-buffered saline with Tween-20 0.05% (Santa Cruz Biotechnology). Test compounds were first dissolved in DMSO (Sigma) and then 4 μl were added to test wells containing assay buffer. Serial dilutions using an automated multi-channel pipette were used to generate a concentration range of approximately 1-100 μM. Human FXIIa (Enzyme Research Labs) was diluted in assay buffer to a final concentration of 12.5 nM. 80 μl of this enzyme solution was added to the assay wells. The enzyme/compound mixtures were incubated for 10 minutes at room temperature. Chromogenic substrate (Pefachrome XIIa; Enzyme Research Labs) was added to assay wells at a final concentration of 400 μM. The assay plate was spun for 1 minute at 1500 g and then read at 37° C. in a SpectraMax M2 plate reader (λ=405 nm). Activity was quantified as the rate of change in absorbance, which corresponds to the rate of substrate cleavage. IC50 values were determined as the concentration of inhibitor that produced 50% of the rate of change of control wells without any inhibitor. For compounds with activity <1 μM, the assay was repeated with a lower concentration range, typically from 10-1000 nM.

Chain of Human FXIIa (P00748 373-615): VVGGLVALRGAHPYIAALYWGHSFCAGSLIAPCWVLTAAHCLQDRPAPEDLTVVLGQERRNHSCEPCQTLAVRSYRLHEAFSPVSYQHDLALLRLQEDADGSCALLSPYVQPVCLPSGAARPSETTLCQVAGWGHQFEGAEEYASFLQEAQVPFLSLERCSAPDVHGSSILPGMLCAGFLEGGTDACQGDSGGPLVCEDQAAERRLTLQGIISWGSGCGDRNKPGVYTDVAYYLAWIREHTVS
Chain of Human FXIIa (P00748 20-372 partner): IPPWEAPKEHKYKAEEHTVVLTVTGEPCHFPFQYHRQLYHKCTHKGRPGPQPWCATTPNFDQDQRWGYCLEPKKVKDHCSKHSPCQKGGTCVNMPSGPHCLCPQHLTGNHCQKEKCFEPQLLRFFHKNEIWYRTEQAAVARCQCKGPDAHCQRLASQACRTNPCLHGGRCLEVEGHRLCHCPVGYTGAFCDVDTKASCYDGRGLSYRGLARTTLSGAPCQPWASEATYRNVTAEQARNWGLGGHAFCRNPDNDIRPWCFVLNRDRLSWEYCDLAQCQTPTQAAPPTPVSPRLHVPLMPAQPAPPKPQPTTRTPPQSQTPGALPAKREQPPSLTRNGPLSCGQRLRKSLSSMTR

IC50 [µM]	SMILES
32	Cc1cc(F)cc2c1NCCC2C(=O)n1nc(N)c2c1CN(S(C)(=O)=O)CC2 (stereo not shown) [Example 52, (3-amino-6-(methylsulfonyl)-4,5,6,7-tetrahydropyrazolo[3,4-c]pyridin-1-yl)(6-fluoro-8-methyl-1,2,3,4-tetrahydroquinolin-4-yl)methanone]
> 65	CCc1cc(C)c2c(c1)C(C(=O)n1nc(N)c3c1CN(S(C)(=O)=O)CC3)CCN2 (stereo not shown) [Example 56, (3-amino-6-(methylsulfonyl)-4,5,6,7-tetrahydropyrazolo[3,4-c]pyridin-1-yl)(6-ethyl-8-methyl-1,2,3,4-tetrahydroquinolin-4-yl)methanone]
60	CS(=O)(=O)N1CCc2c(N)nn(C(=O)C3CCNc4c(Cl)cccc43)c2C1 (stereo not shown) [Example 58, (3-amino-6-(methylsulfonyl)-4,5,6,7-tetrahydropyrazolo[3,4-c]pyridin-1-yl)(8-chloro-1,2,3,4-tetrahydroquinolin-4-yl)methanone]
> 65	COc1cccc2c1NCCC2C(=O)n1nc(N)c2c1CN(S(C)(=O)=O)CC2 (stereo not shown) [Example 62, (3-amino-6-(methylsulfonyl)-4,5,6,7-tetrahydropyrazolo[3,4-c]pyridin-1-yl)(8-methoxy-1,2,3,4-tetrahydroquinolin-4-yl)methanone]
0.09	CCc1cccc2c1NCCC2C(=O)n1nc2c(c1N)CCN(S(C)(=O)=O)C2 (stereo not shown) [Example 65, (3-amino-6-(methylsulfonyl)-4,5,6,7-tetrahydropyrazolo[3,4-c]pyridin-2-yl)(8-ethyl-1,2,3,4-tetrahydroquinolin-4-yl)methanone]
> 100	CCc1cccc2c1NCCC2C(=O)n1nc(N)c2c1CN(S(C)(=O)=O)CC2 (stereo not shown) [Example 66, (3-amino-6-(methylsulfonyl)-4,5,6,7-tetrahydropyrazolo[3,4-c]pyridin-1-yl)(8-ethyl-1,2,3,4-tetrahydroquinolin-4-yl)methanone]
> 90	CS(=O)(=O)N1CCc2c(N)nn(C(=O)C3CCNc4c3cccc4C(F)(F)F)c2C1 (stereo not shown) [Example 68, (3-amino-6-(methylsulfonyl)-4,5,6,7-tetrahydropyrazolo[3,4-c]pyridin-1-yl)(8-(trifluoromethyl)-1,2,3,4-tetrahydroquinolin-4-yl)methanone]
5	Nc1nn(C(=O)C2CCNc3c(Cl)cccc32)c2c1CCNC2 (stereo not shown) [Example 71, (3-amino-4,5,6,7-tetrahydropyrazolo[3,4-c]pyridin-1-yl)(8-chloro-1,2,3,4-tetrahydroquinolin-4-yl)methanone]
25	Nc1nn(C(=O)C2CCNc3ccc(F)cc32)c2c1COCC2 (stereo not shown) [Example 75, (3-amino-6,7-dihydropyrano[4,3-c]pyrazol-1(4H)-yl)(6-fluoro-1,2,3,4-tetrahydroquinolin-4-yl)methanone]
1.25	CN1CCc2nn(C(=O)C3CCNc4ccccc43)c(N)c2C1 (stereo not shown) [Example 86, (3-amino-5-methyl-4,5,6,7-tetrahydro-pyrazolo[4,3-c]pyridin-2-yl)(1,2,3,4-tetrahydro-quinolin-4-yl)methanone]
80	COC(=O)N1CCc2c(c(N)nn2C(=O)C2CCNc3ccccc32)C1 (stereo not shown) [Example 88, methyl 3-amino-1-(1,2,3,4-tetrahydro-quinoline-4-carbonyl)-6,7-dihydro-1H-pyrazolo[4,3-c]pyridine-5(4H)-carboxylate]
1.2	Cc1cc2c(C(=O)n3nc(N)c4c3CN(S(C)(=O)=O)CC4)cccc2[nH]1 [Example 102, (3-amino-6-(methylsulfonyl)-4,5,6,7-tetrahydro-pyrazolo[3,4-c]pyridin-1-yl)(2-methyl-1H-indol-4-yl)methanone]
30	COC(=O)N1CCc2c(N)nn(C(=O)C3CCNc4ccccc43)c2C1 (stereo not shown) [Example 115, methyl 3-amino-1-(1,2,3,4-tetrahydro-quinoline-4-carbonyl)-4,5-dihydro-1H-pyrazolo[3,4-c]pyridine-6(7H)-carboxylate]
45	CS(=O)(=O)N1CCc2c(N)nn(C(=O)C3CCCc4[nH]c(Cl)cc43)c2C1 (stereo not shown) [Example 133, (3-amino-6-(methylsulfonyl)-4,5,6,7-tetrahydro-pyrazolo[3,4-c]pyridin-1-yl)(2-chloro-4,5,6,7-tetrahydro-1H-indol-4-yl)methanone]
7	CC(C)S(=O)(=O)N1CCc2c(N)nn(C(=O)C3CCNc4ccc(F)cc43)c2C1 (stereo not shown) [Example 137, (3-amino-6-(isopropyl-sulfonyl)-4,5,6,7-tetrahydro-pyrazolo[3,4-c]pyridin-1-yl)(6-fluoro-1,2,3,4-tetrahydro-quinolin-4-yl)methanone]
55	CC(C)(C)S(=O)(=O)N1CCc2c(N)nn(C(=O)C3CCNc4ccc(F)cc43)c2C1 (stereo not shown) [Example 139, (3-amino-6-(tert-butylsulfonyl)-4,5,6,7-tetrahydro-pyrazolo[3,4-c]pyridin-1-yl)(6-fluoro-1,2,3,4-tetrahydro-quinolin-4-yl)methanone]

IC50 [µM]	SMILES
31	Nc1nn(C(=O)C2CCNc3ccc(F)cc32)c2c1CCN(S(=O)(=O)CF)C2 (stereo not shown) [Example 141, (3-amino-6-(fluoromethyl-sulfonyl)-4,5,6,7-tetrahydro-pyrazolo(3,4-c]pyridin-1-yl)(6-fluoro-1,2,3,4-tetrahydro-quinolin-4-yl)methanone]
17	Nc1nn(C(=O)C2CCNc3ccc(F)cc32)c2c1CCN(S(=O)(=O)CC(F)F)C2 (stereo not shown) [Example 143, (3-amino-6-(2,2-difluoroethyl-sulfonyl)-4,5,6,7-tetrahydro-pyrazolo[3,4-c]pyridin-1-yl)(6-fluoro-1,2,3,4-tetrahydro-quinolin-4-yl)methanone]
20	Nc1nn(C(=O)C2CCNc3ccc(F)cc32)c2c1CCNC2 (stereo not shown) [Example 148, (3-amino-4,5,6,7-tetrahydro-pyrazolo[3,4-c]pyridin-1-yl)(6-fluoro-1,2,3,4-tetrahydro-quinolin-4-yl)methanone]
> 70	CCCN1CCc2c(N)nn(C(=O)C3CCNc4ccc(F)cc43)c2C1 (stereo not shown) [Example 150, (3-amino-6-propyl-4,5,6,7-tetrahydro-pyrazolo[3,4-c]pyridin-1-yl)(6-fluoro-1,2,3,4-tetrahydro-quinolin-4-yl)methanone]
18	CC(C)CN1CCc2c(N)nn(C(=O)C3CCNc4ccc(F)cc43)c2C1 (stereo not shown) [Example 154, (3-amino-6-isobutyl-4,5,6,7-tetrahydro-pyrazolo[3,4-c]pyridin-1-yl)(6-fluoro-1,2,3,4-tetrahydro-quinolin-4-yl)methanone]
1.2	Nc1c2c(nn1C(=O)C1CCNc3ccc(F)cc31)CN(S(=O)(=O)c1ccncc1)CC2 (stereo not shown) [Example 155, (3-amino-6-(pyridin-4-ylsulfonyl)-4,5,6,7-tetrahydro-pyrazolo[3,4-c]pyridin-2-yl)(6-fluoro-1,2,3,4-tetrahydro-quinolin-4-yl)methanone]
14	Nc1nn(C(=O)C2CCNc3ccc(F)cc32)c2c1CCN(S(=O)(=O)c1ccncc1)C2 (stereo not shown) [Example 156, (3-amino-6-(pyridin-4-ylsulfonyl)-4,5,6,7-tetrahydro-pyrazolo[3,4-c]pyridin-1-yl)(6-fluoro-1,2,3,4-tetrahydro-quinolin-4-yl)methanone]
37	Nc1nn(C(=O)C2CCNc3ccc(F)cc32)c2c1CCN(S(=O)(=O)c1cccnc1)C2 (stereo not shown) [Example 158, (3-amino-6-(pyridin-3-ylsulfonyl)-4,5,6,7-tetrahydro-pyrazolo[3,4-c]pyridin-1-yl)(6-fluoro-1,2,3,4-tetrahydro-quinolin-4-yl)methanone]
16	Nc1nn(C(=O)C2CCNc3ccc(F)cc32)c2c1CCN(S(=O)(=O)C(F)F)C2 (stereo not shown) [Example 160, (3-amino-6-(difluoromethyl-sulfonyl)-4,5,6,7-tetrahydro-pyrazolo[3,4-c]pyridin-1-yl)(6-fluoro-1,2,3,4-tetrahydro-quinolin-4-yl)methanone]
21	CCN1CCc2c(N)nn(C(=O)C3CCNc4ccc(Cl)cc43)c2C1 (stereo not shown) [Example 162, (3-amino-6-ethyl-4,5,6,7-tetrahydro-pyrazolo[3,4-c]pyridin-1-yl)(6-chloro-1,2,3,4-tetrahydro-quinolin-4-yl)methanone]
12	CCN1CCc2c(N)nn(C(=O)C3CCNc4ccc(F)cc43)c2C1 (stereo not shown) [Example 164, (3-amino-6-ethyl-4,5,6,7-tetrahydro-pyrazolo[3,4-c]pyridin-1-yl)(6-fluoro-1,2,3,4-tetrahydro-quinolin-4-yl)methanone]
4.5	CCN1CCc2c(N)nn(C(=O)C3CCNc4c(C)cc(F)cc43)c2C1 (stereo not shown) [Example 172, (3-amino-6-ethyl-4,5,6,7-tetrahydro-pyrazolo[3,4-c]pyridin-1-yl)(6-fluoro-8-methyl-1,2,3,4-tetrahydro-quinolin-4-yl)methanone]
50	CCN1CCc2c(N)nn(C(=O)C3CCNc4c(C)cccc43)c2C1 (stereo not shown) [Example 175, (3-amino-6-ethyl-4,5,6,7-tetrahydro-pyrazolo[3,4-c]pyridin-1-yl)(8-methyl-1,2,3,4-tetrahydro-quinolin-4-yl)methanone]
60	Cc1cccc2c1NCCC2C(=O)n1nc(N)c2c1CNCC2 (stereo not shown) [Example 178, (3-amino-4,5,6,7-tetrahydro-pyrazolo[3,4-c]pyridin-1-yl)(8-methyl-1,2,3,4-tetrahydro-quinolin-4-yl)methanone]
11	Cc1cccc2c1NCCC2C(=O)n1nc(N)c2c1CN(S(=O)(=O)C1CCC1)CC2 (stereo not shown) [Example 184]

Source: patent US11312723B2, “Pyranopyrazole and pyrazolopyridine immunomodulators for treatment of autoimmune diseases” (The Rockefeller University, priority 2017, dated 2022)
